One assay addresses T1, PSMA (Homo sapiens, UniProt Q04609).
T1 construct: host or cells: LNCaP cells
Kind of assay: Competitive cell binding assay (binding affinity) on LNCaP cells against 68Ga-labeled [Glu-urea-Lys(Ahx)]2-HBED-CC. As to conditions: competition with 68Ga-labeled [Glu-urea-Lys(Ahx)]2-HBED-CC, non-radioactive reference compounds. As to the method:
For binding studies and in vivo experiments LNCaP cells (metastatic lesion of human prostatic adenocarcinoma, ATCC CRL-1740) were cultured in RPMI medium supplemented with 10% fetal calf serum and Glutamax (PAA, Austria). During cell culture, cells were grown at 37° C. in an incubator with humidified air, equilibrated with 5% CO2. The cells were harvested using trypsin-ethylenediaminetetraacetic acid (trypsin-1.5 EDTA; 0.25% trypsin, 0.02% EDTA, all from PAA, Austria) and washed with PBS.
The competitive cell binding assay and internalization experiments were performed as described previously (Eder et al. Bioconjugate Chem. 2012, 23 (4), 688-697). Briefly, the respective cells (10^5 per well) were incubated with the radioligand (^68Ga-labeled [Glu-urea-Lys(Ahx)]2-HBED-CC (Schafer et al. EJNMMI Research 2012, 2:23 doi:10.1186/2191-219X-2-23))) in the presence of 12 different concentrations of analyte (0-5000 nM, 100 μL/well). After incubation, washing was carried out using a multiscreen vacuum manifold (Millipore, Billerica, Mass.). Cell-bound radioactivity was measured using a gamma counter (Packard Cobra II, GMI, Minnesota, USA). The 50% inhibitory concentration (IC50) was calculated by fitting the data using a nonlinear regression algorithm (GraphPad Software). Experiments were performed three times. Reference is made to Table A below.

The test system of a further assay is LNCaP cells. The experiment in a line: Specific cell uptake and internalization in LNCaP cells. It counts as cell-based, human. As to conditions: for Cell surface / Internalised: 30 nM radiolabeled compound, 45 min, 37° C., specific (PMPA block); for Internalized fraction: (Internalized activity/total activity)*100. As to the method: During cell culture, cells were grown at 37° C. in an incubator with humidified air, equilibrated with 5% CO2. […] To determine the specific cell uptake and internalization, 10^5 cells were seeded in poly-L-lysine coated 24-well cell culture plates 24 h before incubation. After washing, the cells were incubated with 30 nM of the radiolabeled compounds for 45 min at 37° C. […] Cellular uptake was terminated by washing 3 times with 1 mL of ice-cold PBS. […] The cells were washed with 1 mL of ice-cold PBS and lysed using 0.3 N NaOH (0.5 mL). The surface-bound and the internalized fractions were measured in a gamma counter. The cell uptake was calculated as percent of the initially added radioactivity bound to 10^5 cells [% ID/10^5 cells].

Square brackets hold non-standard residues; d marks the D form. Peptide text beside a SMILES is read from it. * marks the point of attachment. X1 = O=C(O)CCC(NC(=O)NC(CCCCN*)C(=O)O)C(=O)O; 2Nal = N[CH](Cc1ccc2ccccc2c1)C(=O)O; Nicotinoyl(6-F) = O=C(c1ccc(F)nc1)*; 4Amb = NCc1ccc(C(=O)O)cc1

T1 sequence (Q04609 whole entry): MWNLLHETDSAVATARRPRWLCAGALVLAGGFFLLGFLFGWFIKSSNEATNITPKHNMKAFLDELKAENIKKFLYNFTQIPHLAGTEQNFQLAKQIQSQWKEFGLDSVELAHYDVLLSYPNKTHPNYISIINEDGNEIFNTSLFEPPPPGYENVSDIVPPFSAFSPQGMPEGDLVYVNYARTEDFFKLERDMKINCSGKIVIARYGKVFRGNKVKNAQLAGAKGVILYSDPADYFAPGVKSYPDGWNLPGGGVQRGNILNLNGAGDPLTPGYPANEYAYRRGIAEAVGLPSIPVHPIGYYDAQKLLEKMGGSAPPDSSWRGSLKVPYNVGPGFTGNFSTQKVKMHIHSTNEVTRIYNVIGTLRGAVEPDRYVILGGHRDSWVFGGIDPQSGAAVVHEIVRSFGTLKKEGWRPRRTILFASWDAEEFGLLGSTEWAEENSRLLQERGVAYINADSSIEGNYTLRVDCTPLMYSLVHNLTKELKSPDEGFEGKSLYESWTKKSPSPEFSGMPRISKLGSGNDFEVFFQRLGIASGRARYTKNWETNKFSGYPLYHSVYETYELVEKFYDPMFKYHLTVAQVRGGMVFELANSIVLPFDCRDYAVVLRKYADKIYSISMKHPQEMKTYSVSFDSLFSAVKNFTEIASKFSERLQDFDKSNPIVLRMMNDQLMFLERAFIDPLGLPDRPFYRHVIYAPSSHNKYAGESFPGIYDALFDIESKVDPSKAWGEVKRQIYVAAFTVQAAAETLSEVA

For the compound `O=C(O)CCC(NC(=O)NC(CCCCNC(=O)C(Cc1ccc2ccccc2c1)NC(=O)c1ccc(CNC(=O)C(CCC(=O)O)NC(=O)C(CCC(=O)O)NC(=O)c2ccc(F)nc2)cc1)C(=O)O)C(=O)O` (stereo not shown) [PSMA-1007, (Glu)-(Urea)-(Lys)-(2-Nal)-(Bn)-(Glu)-(Glu)-FN], the IC50 at PSMA stood at 5 nM.

Turning to `O=C(O)CC[C@@H](NC(=O)N[C@H](CCCCNC(=O)[C@@H](Cc1ccc2ccccc2c1)NC(=O)[C@@H](CCC(=O)O)NC(=O)[C@@H](CCC(=O)O)NC(=O)c1ccnc(F)c1)C(=O)O)C(=O)O` [PSMA-1011, (Glu)-(Urea)-(Lys)-(2-Naphthylalanine)-(Glu)-(Glu)-FN], the IC50 at PSMA was 7 nM.

In the assay on LNCaP cells, `O=C(O)CC[C@@H](NC(=O)N[C@H](CCCCNC(=O)[C@@H](Cc1ccc2ccccc2c1)NC(=O)[C@@H](CCC(=O)O)NC(=O)[C@@H](CCC(=O)O)NC(=O)c1ccnc([18F])c1)C(=O)O)C(=O)O` [PSMA-1011, (Glu)-(Urea)-(Lys)-(2-Naphthylalanine)-(Glu)-(Glu)-FN] had a Cell surface of 4.1 % ID/10^5 cells, an Internalised of 0.7 % ID/10^5 cells and an Internalized fraction of 15%.

As for `O=C(O)CC[C@H](NC(=O)N[C@@H](CCCCNC(=O)[C@@H](Cc1ccc2ccccc2c1)NC(=O)CC[C@@H](NC(=O)[C@@H](CCC(=O)O)NC(=O)c1ccnc(F)c1)C(=O)O)C(=O)O)C(=O)O` [PSMA-1012, (Glu)-(Urea)-(Lys)-(2-Naphthylalanine)-(γGlu)-(Glu)-FN], the IC50 on PSMA was found to be 7 nM.

In the assay with LNCaP cells, `O=C(O)CC[C@H](NC(=O)N[C@@H](CCCCNC(=O)[C@@H](Cc1ccc2ccccc2c1)NC(=O)CC[C@@H](NC(=O)[C@@H](CCC(=O)O)NC(=O)c1ccnc([18F])c1)C(=O)O)C(=O)O)C(=O)O` [PSMA-1012, (Glu)-(Urea)-(Lys)-(2-Naphthylalanine)-(γGlu)-(Glu)-FN] showed a Cell surface of 6.9 % ID/10^5 cells, an Internalised of 2.7 % ID/10^5 cells and an Internalized fraction of 28%.

As to `O=C(O)CC[C@@H](NC(=O)N[C@H](CCCCNC(=O)[C@@H](Cc1ccc2ccccc2c1)NC(=O)c1ccc(CNC(=O)[C@@H](CCC(=O)O)NC(=O)c2ccnc(F)c2)cc1)C(=O)O)C(=O)O` [PSMA-1015, (Glu)-(Urea)-(Lys)-(2-Nal)-(Bn)-(Glu)-FN], the IC50 on PSMA was 4 nM.

Consider `O=C(O)CC[C@@H](NC(=O)N[C@H](CCCCNC(=O)[C@@H](Cc1ccc2ccccc2c1)NC(=O)c1ccc(CNC(=O)[C@@H](CCC(=O)O)NC(=O)c2ccnc([18F])c2)cc1)C(=O)O)C(=O)O` [PSMA-1015, (Glu)-(Urea)-(Lys)-(2-Nal)-(Bn)-(Glu)-FN], for which, in the assay on LNCaP cells, the Cell surface is listed as 14.3 % ID/10^5 cells, the Internalised was 6.0 % ID/10^5 cells and the Internalized fraction was determined as 30%.

In the assay with LNCaP cells, `O=C(O)CCC(NC(=O)NC(CCCCNC(=O)C(Cc1ccc2ccccc2c1)NC(=O)c1ccc(CNC(=O)C(CCC(=O)O)NC(=O)C(CCC(=O)O)NC(=O)C(CCC(=O)O)NC(=O)c2ccc([18F])nc2)cc1)C(=O)O)C(=O)O` (stereo not shown) [PSMA-1018, (Glu)-(Urea)-(Lys)-(2-Nal)-(Bn)-(Glu)-(Glu)-(Glu)-FN] returned a Cell surface of 1.1 % ID/10^5 cells, an Internalised of 0.9 % ID/10^5 cells and an Internalized fraction of 45%.

`O=C(O)CCC(NC(=O)NC(CCCCNC(=O)C(Cc1ccc2ccccc2c1)NC(=O)c1ccc(CNC(=O)C(CCC(=O)O)NC(=O)C(CCC(=O)O)NC(=O)C(CCC(=O)O)NC(=O)c2ccc(F)nc2)cc1)C(=O)O)C(=O)O` (stereo not shown) [PSMA-1018, (Glu)-(Urea)-(Lys)-(2-Nal)-(Bn)-(Glu)-(Glu)-(Glu)-FN] ({Nicotinoyl(6-F)}-EEE[4Amb][2Nal]-X1; configuration not given here): at PSMA, the IC50 was determined as 14 nM.

Consider `O=C(O)CCC(NC(=O)NC(CCCCNC(=O)C(Cc1ccc2ccccc2c1)NC(=O)C1CCC(CNC(=O)C(CCC(=O)O)NC(=O)C(CCC(=O)O)NC(=O)c2ccc(F)nc2)CC1)C(=O)O)C(=O)O` (stereo not shown) [PSMA-1019, (Glu)-(Urea)-(Lys)-(2-Nal)-(Chx)-(Glu)-(Glu)-FN], for which the IC50 on PSMA was determined as 12 nM.

Take `O=C(O)CCC(NC(=O)NC(CCCCNC(=O)C(Cc1ccc2ccccc2c1)NC(=O)C1CCC(CNC(=O)C(CCC(=O)O)NC(=O)C(CCC(=O)O)NC(=O)c2ccc([18F])nc2)CC1)C(=O)O)C(=O)O` (stereo not shown) [PSMA-1019, (Glu)-(Urea)-(Lys)-(2-Nal)-(Chx)-(Glu)-(Glu)-FN]: in the assay with LNCaP cells, the Cell surface came out at 5.5 % ID/10^5 cells, the Internalised is on record as 1.9 % ID/10^5 cells and the Internalized fraction amounted to 26%.

As for `O=C(O)CCC(NC(=O)NC(CCCCNC(=O)C(Cc1ccc2ccccc2c1)NC(=O)CCC(NC(=O)C(CCC(=O)O)NC(=O)C(CCC(=O)O)NC(=O)c1ccc(F)nc1)C(=O)O)C(=O)O)C(=O)O` (stereo not shown) [PSMA-1020, (Glu)-(Urea)-(Lys)-(2-Nal)-(γGlu)-(Glu)-(Glu)-FN], the 50% inhibitory concentration (IC50) at PSMA is 9 nM.

As for `O=C(O)CCC(NC(=O)NC(CCCCNC(=O)C(Cc1ccc2ccccc2c1)NC(=O)CCC(NC(=O)C(CCC(=O)O)NC(=O)C(CCC(=O)O)NC(=O)c1ccc([18F])nc1)C(=O)O)C(=O)O)C(=O)O` (stereo not shown) [PSMA-1020, (Glu)-(Urea)-(Lys)-(2-Nal)-(γGlu)-(Glu)-(Glu)-FN], in the assay on LNCaP cells, the Cell surface is reported as 6.8 % ID/10^5 cells, the Internalised came out at 1.5 % ID/10^5 cells and the Internalized fraction is 18%.

For `O=C(O)CCC(NC(=O)NC(CCCCNC(=O)C(Cc1ccc2ccccc2c1)NC(=O)CCC(NC(=O)CCC(NC(=O)c1ccc(F)nc1)C(=O)O)C(=O)O)C(=O)O)C(=O)O` (stereo not shown) [PSMA-1022, (Glu)-(Urea)-(Lys)-(2-Nal)-(γGlu)-(γGlu)-FN], the IC50 at PSMA stood at 8 nM.

In the assay with LNCaP cells, `O=C(O)CCC(NC(=O)NC(CCCCNC(=O)C(Cc1ccc2ccccc2c1)NC(=O)CCC(NC(=O)CCC(NC(=O)c1ccc([18F])nc1)C(=O)O)C(=O)O)C(=O)O)C(=O)O` (stereo not shown) [PSMA-1022, (Glu)-(Urea)-(Lys)-(2-Nal)-(γGlu)-(γGlu)-FN] registered a Cell surface of 3.5 % ID/10^5 cells, an Internalised of 1.0 % ID/10^5 cells and an Internalized fraction of 22%.

`O=C(O)CCC(NC(=O)NC(CCCCNC(=O)C(Cc1ccc2ccccc2c1)NC(=O)c1ccc(CNC(=O)C(CCC(=O)O)NC(=O)C(CCC(=O)O)NC(=O)c2ccc(F)nc2)cc1)C(=O)O)C(=O)O` [PSMA-1023, (Glu)-(Urea)-(Lys)-(2-Nal)-(Bn)-(D-Glu)-(D-Glu)-FN]: at PSMA, the IC50 was determined as 8 nM.

On to `O=C(O)CCC(NC(=O)NC(CCCCNC(=O)C(Cc1ccc2ccccc2c1)NC(=O)c1ccc(CNC(=O)C(CCC(=O)O)NC(=O)C(CCC(=O)O)NC(=O)c2ccc([18F])nc2)cc1)C(=O)O)C(=O)O` [PSMA-1023, (Glu)-(Urea)-(Lys)-(2-Nal)-(Bn)-(D-Glu)-(D-Glu)-FN], for which, in the assay with LNCaP cells, the Cell surface was 6.5 % ID/10^5 cells, the Internalised is 3.2 % ID/10^5 cells and the Internalized fraction worked out at 33%.

With `O=C(O)CCC(NC(=O)NC(CCCCNC(=O)C(Cc1ccc2ccccc2c1)NC(=O)c1ccc(CNC(=O)C(CCC(=O)O)NC(=O)C(CCC(=O)O)NC(=O)c2ccc(F)nc2)cc1)C(=O)O)C(=O)O` [PSMA-1024, (Glu)-(Urea)-(Lys)-(2-Nal)-(Bn)-(D-Glu)-(Glu)-FN], on PSMA, the IC50 was 8 nM.

In the assay on LNCaP cells, `O=C(O)CCC(NC(=O)NC(CCCCNC(=O)C(Cc1ccc2ccccc2c1)NC(=O)c1ccc(CNC(=O)C(CCC(=O)O)NC(=O)C(CCC(=O)O)NC(=O)c2ccc([18F])nc2)cc1)C(=O)O)C(=O)O` [PSMA-1024, (Glu)-(Urea)-(Lys)-(2-Nal)-(Bn)-(D-Glu)-(Glu)-FN] came in with a Cell surface of 5.3 % ID/10^5 cells, an Internalised of 2.1 % ID/10^5 cells and an Internalized fraction of 28%.

For the compound `O=C(O)CCC(NC(=O)NC(CCCCNC(=O)C(Cc1ccc2ccccc2c1)NC(=O)c1ccc(CNC(=O)C(CNC(=O)c2ccc([18F])nc2)S(=O)(=O)O)cc1)C(=O)O)C(=O)O` (stereo not shown) [PSMA-1026, (Glu)-(Urea)-(Lys)-(2-Nal)-(Bn)-(Sala)-FN], in the assay on LNCaP cells, the Cell surface came to 1.3 % ID/10^5 cells, the Internalised came out at 1.3 % ID/10^5 cells and the Internalized fraction is 50%.

`O=C(O)CCC(NC(=O)NC(CCCCNC(=O)C(Cc1ccc2ccccc2c1)NC(=O)c1ccc(CNC(=O)C(CNC(=O)C(CNC(=O)c2ccc([18F])nc2)S(=O)(=O)O)S(=O)(=O)O)cc1)C(=O)O)C(=O)O` (stereo not shown) [PSMA-1027, (Glu)-(Urea)-(Lys)-(2-Nal)-(Bn)-(Sala)-(Sala)-FN]: in the assay on LNCaP cells, the Cell surface came out at 0.9 % ID/10^5 cells, the Internalised was found to be 1.4 % ID/10^5 cells and the Internalized fraction was 60%.
